Our source for the GI50 values is ChEMBL document CHEMBL1141759, “Steroids from the Antarctic octocoral Anthomastus bathyproctus” (2005).

What all share (type): functional
The test system of one assay is A549. Put plainly: Cytotoxicity against human A549 cells by SRB assay. Background: The SRB assay estimates cell density from bound dye.
Another assay has as its system MDA-MB-231. Description: Cytotoxicity against human MDA-MB-231 cells by SRB assay.
The test system of the next assay is HT-29. Description: Cytotoxicity against human HT-29 cells by SRB assay.

In general, GI50 refers to the concentration that inhibits growth by half. Consider `C=C(CC[C@](C)(O)[C@H]1CC[C@H]2[C@@H]3CCC4=CC(=O)C=C[C@]4(C)[C@H]3CC[C@@]21C)C(C)C`, for which the GI50 in the assay on A549 was 23.4 µM.

Take `COC(=O)/C(C)=C/CC[C@@H](C)[C@H]1CC[C@H]2[C@@H]3CCC4=CC(=O)C=C[C@]4(C)[C@H]3CC[C@]12C`: the GI50 came to 16.5 µM with A549, 21.2 µM with MDA-MB-231 and 15.3 µM with HT-29.

In the assay with MDA-MB-231, `COC(=O)/C(C)=C/C[C@@H](OC(C)=O)[C@@H](C)[C@H]1CC[C@H]2[C@@H]3CCC4=CC(=O)C=C[C@]4(C)[C@H]3CC[C@]12C` showed a GI50 of 18.4 µM.

On to `COC(=O)C(C)/C=C/[C@@H](C)[C@H]1CC[C@H]2[C@@H]3CCC4=CC(=O)C=C[C@]4(C)[C@H]3CC[C@]12C` (stereo partly drawn), for which the GI50 worked out at 21.4 µM in the assay on A549, 22.4 µM in the assay on MDA-MB-231 and 20.2 µM in the assay on HT-29.
